The results in this text go back to PubChem BioAssay AID248 (DTP/NCI, 2004).

Where “and” joins values, the source holds several entries; their conditions need not be identical. Equal values may be shown once. Toxic doses and inconclusive results are not listed.

This assay deals with L1210 leukemia ip in BDF1 mice, survival T/C. Briefly: NCI In Vivo Anticancer Drug Screen. Data for tumor model L1210 Leukemia (intraperitoneal) in B6D2F1 (BDF1) mice. To be noted: endpoint: mean survival time, higher = longer survival. The method in brief: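 Read-out is survival time, reported as the treated-group measurement over the vehicle-control measurement.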
[1] abbreviates: dose: 100.0 mg/kg/injection, schedule: Q01DX001 (ip), vehicle: saline.
Setting [2] is: dose: 200.0 mg/kg/injection, schedule: Q01DX001 (ip), vehicle: saline.
[3] abbreviates: dose: 400.0 mg/kg/injection, schedule: Q01DX001 (ip), vehicle: saline.
The mark [4] stands for this setting: dose: 100.0 mg/kg/injection, schedule: Q04DX003 (ip), vehicle: saline with Tween-80.
The mark [5] stands for this setting: dose: 200.0 mg/kg/injection, schedule: Q04DX003 (ip), vehicle: saline with Tween-80.
[6] abbreviates: dose: 400.0 mg/kg/injection, schedule: Q04DX003 (ip), vehicle: saline with Tween-80.
Where [7] appears, read: dose: 100.0 mg/kg/injection, schedule: Q04DX003 (ip), vehicle: Klucel (hydroxypropylcellulose) (HPC).
[8] abbreviates: dose: 200.0 mg/kg/injection, schedule: Q04DX003 (ip), vehicle: Klucel (hydroxypropylcellulose) (HPC).
Where [9] appears, read: dose: 400.0 mg/kg/injection, schedule: Q04DX003 (ip), vehicle: Klucel (hydroxypropylcellulose) (HPC).

For `OC(CCl)COc1ccccc1` (configuration not stated), the T/C reads like this: (dose: 100.0 mg/kg/injection, schedule: Q01DX009 (sc), vehicle: olive oil, sesame oil, peanut oil) 91 % of control; (dose: 100.0 mg/kg/injection, schedule: Q04DX002 (sc), vehicle: olive oil, sesame oil, peanut oil) 101 % of control; (dose: 200.0 mg/kg/injection, schedule: Q01DX009 (sc), vehicle: olive oil, sesame oil, peanut oil) 105 % of control; (dose: 200.0 mg/kg/injection, schedule: Q04DX002 (sc), vehicle: olive oil, sesame oil, peanut oil) 104 % of control; (dose: 400.0 mg/kg/injection, schedule: Q01DX009 (sc), vehicle: olive oil, sesame oil, peanut oil) 94 % of control; (dose: 400.0 mg/kg/injection, schedule: Q04DX002 (sc), vehicle: olive oil, sesame oil, peanut oil) 96 % of control.
Take `Cn1ncc2cncnc21`: the T/C is 103 % of control under setting [1], 103 % of control under setting [2] and 103 % of control under setting [3].
Consider `O=C1NC(=O)C(Nc2ccccc2)(c2ccccc2)N1` (configuration not stated), for which the T/C was 90 % of control (dose: 100.0 mg/kg/injection, schedule: Q01DX001 (ip), vehicle: Klucel (hydroxypropylcellulose) (HPC)) and 95 % of control (dose: 200.0 mg/kg/injection, schedule: Q01DX001 (ip), vehicle: Klucel (hydroxypropylcellulose) (HPC)).
For `Cc1c(F)cc(I)cc1[N+](=O)[O-]`, the T/C runs as follows: (dose: 100.0 mg/kg/injection, schedule: Q01DX001 (ip), vehicle: acetone) 100 % of control; (dose: 100.0 mg/kg/injection, schedule: Q01DX009 (ip), vehicle: saline with Tween-80) 103 % of control; under setting [4], 100 % of control; (dose: 200.0 mg/kg/injection, schedule: Q01DX001 (ip), vehicle: acetone) 95 % of control; (dose: 200.0 mg/kg/injection, schedule: Q01DX009 (ip), vehicle: saline with Tween-80) 105 % of control; under setting [5], 100 % of control. The T/C was 97 % of control (dose: 400.0 mg/kg/injection, schedule: Q01DX001 (ip), vehicle: acetone); 103 % of control (dose: 400.0 mg/kg/injection, schedule: Q01DX009 (ip), vehicle: saline with Tween-80); 93 % of control under setting [6].
Turning to `O=C(O)C(=O)Cc1c(Cl)cccc1[N+](=O)[O-]`, the T/C was 104 % of control (dose: 50.0 mg/kg/injection, schedule: Q01DX001 (ip), vehicle: saline); 101 % of control under setting [1]; 106 % of control under setting [2]; 104 % of control under setting [3].
Turning to `CC(Cl)C(=O)OC(C)(C)Cl` (configuration not stated), the T/C runs as follows: (dose: 75.0 mg/kg/injection, schedule: Q01DX001 (ip), vehicle: carboxymethylcellulose (CMC)) 104 % of control; (dose: 150.0 mg/kg/injection, schedule: Q01DX001 (ip), vehicle: carboxymethylcellulose (CMC)) 107 % of control.
For the molecule `COC(=O)c1cc(Cl)ccc1OCC(=O)Nc1cccc([N+](=O)[O-])c1`, the T/C reads like this: (dose: 100.0 mg/kg/injection, schedule: Q01DX009 (ip), vehicle: Klucel (hydroxypropylcellulose) (HPC)) 96 % of control; (dose: 100.0 mg/kg/injection, schedule: Q04DX002 (ip), vehicle: Klucel (hydroxypropylcellulose) (HPC)) 94 % of control; (dose: 100.0 mg/kg/injection, schedule: Q04DX002 (ip), vehicle: saline) 94 % of control; (dose: 200.0 mg/kg/injection, schedule: Q01DX009 (ip), vehicle: Klucel (hydroxypropylcellulose) (HPC)) 89 % of control; (dose: 200.0 mg/kg/injection, schedule: Q04DX002 (ip), vehicle: Klucel (hydroxypropylcellulose) (HPC)) 92 % of control; (dose: 200.0 mg/kg/injection, schedule: Q04DX002 (ip), vehicle: saline) 97 % of control. Also, the T/C is, setting by setting: (dose: 400.0 mg/kg/injection, schedule: Q01DX009 (ip), vehicle: Klucel (hydroxypropylcellulose) (HPC)) 104 % of control; (dose: 400.0 mg/kg/injection, schedule: Q04DX002 (ip), vehicle: Klucel (hydroxypropylcellulose) (HPC)) 92 % of control; (dose: 400.0 mg/kg/injection, schedule: Q04DX002 (ip), vehicle: saline) 97 % of control.
In the case of `ClCc1ccc(CCl)c2ccccc12`, the T/C was 104 % of control under setting [7], 105 % of control under setting [8] and 100 % of control under setting [9].
`CCNc1nncs1`: the T/C is 97 % of control (dose: 7.0 mg/kg/injection, schedule: Q03HX032 (ip), vehicle: saline); 104 % of control (dose: 11.0 mg/kg/injection, schedule: Q03HX032 (ip), vehicle: saline); 105 % of control (dose: 16.0 mg/kg/injection, schedule: Q03HX032 (ip), vehicle: saline); 102 % of control (dose: 17.25 mg/kg/injection, schedule: Q01DX Z (ip), vehicle: carboxymethylcellulose (CMC)); 101 % of control (dose: 24.0 mg/kg/injection, schedule: Q03HX032 (ip), vehicle: saline); 106 % of control (dose: 27.0 mg/kg/injection, schedule: Q01DX015 (ip), vehicle: saline). Further, the T/C is 100 % of control and 114 % of control (dose: 27.6 mg/kg/injection, schedule: Q01DX Z (ip), vehicle: carboxymethylcellulose (CMC)); 98 % of control and 101 % of control (dose: 34.5 mg/kg/injection, schedule: Q01DX Z (ip), vehicle: carboxymethylcellulose (CMC)); 118 % of control (dose: 36.0 mg/kg/injection, schedule: Q03HX032 (ip), vehicle: saline); 103 % of control (dose: 40.0 mg/kg/injection, schedule: Q01DX015 (ip), vehicle: saline); 100 % of control and 107 % of control (dose: 46.0 mg/kg/injection, schedule: Q01DX Z (ip), vehicle: carboxymethylcellulose (CMC)); 108 % of control (dose: 60.0 mg/kg/injection, schedule: Q01DX015 (ip), vehicle: saline). Besides, the T/C was 117 % of control (dose: 64.0 mg/kg/injection, schedule: Q02DX010 (ip), vehicle: carboxymethylcellulose (CMC)); 170 % of control (dose: 75.0 mg/kg/injection, schedule: Q01DX Z (ip), vehicle: saline); 123 % of control (dose: 96.0 mg/kg/injection, schedule: Q02DX010 (ip), vehicle: carboxymethylcellulose (CMC)); 123 % of control (dose: 103.5 mg/kg/injection, schedule: Q01DX Z (ip), vehicle: carboxymethylcellulose (CMC)); 112 % of control (dose: 138.0 mg/kg/injection, schedule: Q01DX Z (ip), vehicle: carboxymethylcellulose (CMC)); 176 % of control (dose: 150.0 mg/kg/injection, schedule: Q01DX Z (ip), vehicle: saline). The T/C runs as follows: (dose: 150.0 mg/kg/injection, schedule: Q01DX Z (oral), vehicle: saline) 115 % of control; (dose: 265.0 mg/kg/injection, schedule: Q01DX001 (ip), vehicle: saline) 104 % of control; (dose: 270.0 mg/kg/injection, schedule: Q01DX001 (ip), vehicle: saline) 106 % of control; (dose: 300.0 mg/kg/injection, schedule: Q01DX Z (oral), vehicle: saline) 98 % of control; (dose: 337.0 mg/kg/injection, schedule: Q02DX010 (ip), vehicle: carboxymethylcellulose (CMC)) 120 % of control; under setting [3], 109 % of control. Besides, the T/C (dose: 562.0 mg/kg/injection, schedule: Q02DX010 (ip), vehicle: carboxymethylcellulose (CMC)) was 112 % of control and 76 % of control; the T/C (dose: 562.5 mg/kg/injection, schedule: Q02DX010 (ip), vehicle: carboxymethylcellulose (CMC)) is 84 % of control and 88 % of control; the T/C (dose: 600.0 mg/kg/injection, schedule: Q01DX001 (ip), vehicle: saline) is 117 % of control; the T/C (dose: 600.0 mg/kg/injection, schedule: Q01DX Z (oral), vehicle: saline) is 87 % of control.
Turning to `CC(=O)NNc1ccc([N+](=O)[O-])cc1`, the T/C runs as follows: under setting [7], 89 % of control; under setting [8], 94 % of control; under setting [9], 89 % of control.
Regarding `CN(C)C(=O)Sc1ccc([N+](=O)[O-])cc1`, the T/C by setting is: under setting [4], 105 % of control; under setting [5], 111 % of control; under setting [6], 104 % of control.
In the case of `Cc1nc(-c2ccc(N=Cc3ccc(N(CCOS(C)(=O)=O)CCOS(C)(=O)=O)cc3)cc2)cs1`, the T/C (dose: 2.5 mg/kg/injection, schedule: Q04DX003 (ip), vehicle: Klucel (hydroxypropylcellulose) (HPC)) was 106 % of control; the T/C (dose: 5.0 mg/kg/injection, schedule: Q04DX003 (ip), vehicle: Klucel (hydroxypropylcellulose) (HPC)) was 113 % of control; the T/C (dose: 10.0 mg/kg/injection, schedule: Q04DX003 (ip), vehicle: Klucel (hydroxypropylcellulose) (HPC)) was 120 % of control; the T/C under setting [7] was 118 % of control; the T/C under setting [8] was 88 % of control.
